The values below come from patent publication US8999954B2, “Inhibitors of polysialic acid de-N-acetylase and methods for using the same” (Childern's Hospital & Research Center at Oakland, priority 2007, dated 2015).

The test system of experiment [1] is Jurkat T-cell leukemia cells. The experiment can be described thus: Cell viability assay (Guava ViaCount, flow cytometry). Particulars: for EC50: Homo sapiens, read-out: concentration for half-maximal decrease in viability; for EC50 / viability of Jurkat cells: 24 hrs incubation; for apoptosis and cell death in Jurkat cells / cell viability of Jurkat cells: 24 hrs, concentration of 10 mM (FIG. 7); for viability of Jurkat cells: concentration in cell culture media varied (FIG. 3, 4, 9). The class given is cell-based, human. As to the method:
(§1) Human melanoma SK-MEL 28, neuroblastoma CHP-134, and T-cell leukemia Jurkat cell lines were obtained from ATCC (Manassas, Va.). All cell lines were grown in RPMI 1640 media (UCSF Cell Culture Facility, San Francisco, Calif.), supplemented with 10% heat-inactivated fetal bovine serum (Gemini Bio-Products, West Sacramento, Calif.), non-essential amino acids, 100 units/ml penicillin/streptomycin, 110 μg/ml sodium pyruvate, and 2 mM glutamine (UCSF Cell Culture Facility). Jurkat cells were grown to a concentration of not more than 10^6 cells/ml and adherent SK-MEL 28 and CHP-134 cells to a concentration of not more than 5×10^4 cells/cm^2.
(§2) The effect of inhibitors of PSA de-N-acetylase on the viability of human tumor cell lines in culture was measured using a cell viability assay. Cells were incubated with N-acyl or methanesulfonyl hexosamine derivatives for 24 hours. Jurkat cells were incubated at a concentration of 2×10^5 cells/ml in round-bottom 96-well plates (Falcon), 200 μl/well. Adherent cells were incubated at a concentration of 1×10^5 cells/ml in flat-bottom 96-well plates (Nunc). Plates were then spun at 1,000×g for 5 minutes. SK-MEL 28 cells were release from the plate using a trypsin/EDTA solution (UCSF Cell Culture Facility). CHP-134 cells were released using CDR (Guava Technologies). All cells were resuspended in Guava ViaCount reagent and read on a Guava EasyCyte flow cytometer, using the Guava ViaCount assay (all from Guava Technologies).
(In general: In flow cytometry, cells or beads pass a laser one at a time.)

Experiment [2] has as its system CHP-134 neuroblastoma cells. Described as above. It counts as cell-based, human. Particulars: for EC50: Homo sapiens, 24 hrs incubation, read-out: concentration for half-maximal decrease in viability; for EC50 / induction of apoptosis: CHP-134 cells. The procedure: as §1, §2
The subject of experiment [3] is SK-MEL 28 melanoma cells. The experiment is described as above. It counts as cell-based, human. The procedure:
as §1, §2

Experiment [4] has as its system Jurkat T-cell leukemia cells. The description is as above. It counts as cell-based, human. The settings on record: 96 hrs incubation, increasing concentrations (FIG. 8).
The target of experiment [5] is T1, membrane transporters for N-acetyl neuraminic acid (Homo sapiens, UniProt Q9NRA2).
T1 sequence (Q9NRA2 1-495): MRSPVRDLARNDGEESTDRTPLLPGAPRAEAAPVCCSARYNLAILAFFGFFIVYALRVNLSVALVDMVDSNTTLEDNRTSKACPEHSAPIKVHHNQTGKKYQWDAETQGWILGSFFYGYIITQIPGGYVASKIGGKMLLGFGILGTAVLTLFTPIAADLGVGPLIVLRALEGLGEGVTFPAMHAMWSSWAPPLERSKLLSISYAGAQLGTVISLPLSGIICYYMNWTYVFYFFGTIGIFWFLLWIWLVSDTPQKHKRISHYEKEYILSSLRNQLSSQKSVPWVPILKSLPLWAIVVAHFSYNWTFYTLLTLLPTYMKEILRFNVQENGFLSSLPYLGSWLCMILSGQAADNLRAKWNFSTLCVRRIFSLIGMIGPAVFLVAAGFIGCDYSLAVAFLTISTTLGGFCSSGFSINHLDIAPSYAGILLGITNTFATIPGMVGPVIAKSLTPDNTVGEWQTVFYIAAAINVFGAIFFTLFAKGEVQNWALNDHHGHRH
The settings on record: lysosomal membrane transporter; Essentials of Glycobiology 1999; read-out: Michaelis constant, Km, for forming a substrate/transporter complex; cited from earlier work.

The subject of experiment [6] is Jurkat T-cell leukemia cells. As to the kind of experiment: Cell surface expression of N-propionyl PSA (SEAM 18 binding, flow cytometry). The class given is cell-based, human. Particulars: 10 mM supplement in media, 24 hours (FIG. 2). As to the method: (§3) CHP-134, SK-MEL 28 and Jurkat cells were cultured in media containing N-propionyl galactosamine, N-propionyl mannosamine, or N-acetyl mannosamine (10 mM) or no supplement for 24 hours. To measure mAb binding, the cells were released from the plate, pelleted by centrifugation, washed with PBS, and fixed with 1% formaldehyde in PBS. All procedures were performed on ice. Cells were blocked with PBS containing 3% goat serum, then were incubated overnight at 4° C. with one of the following primary antibodies (˜1 μg/ml), diluted in 3% goat serum: irrelevant isotype control mAbs IgG2a or IgG2b (Southern Biotech), SEAM 3 (Granoff et al. J. Immunol. 1998, 160:5028), or SEAM 18 (Granoff et al. J. Immunol. 1998, 160:5028). Cells were then washed and labeled with goat-anti-mouse FITC (1:1000, Jackson Immunoresearch, West Grove, Pa.). Fluorescence was measured on a Guava EasyCyte flow cytometer, using the Guava ExpressPlus assay (Guava Technologies) and the results are expressed as the percent of cells that are positive for mAb binding.

Experiment [7] concerns SK-MEL 28 melanoma cells. Described as above. It counts as cell-based, human. Particulars: SK-MEL 28, 10 mM supplement in media, 24 hours (FIG. 2). As to the method: as §3
In experiment [8] the test system is CHP-134 neuroblastoma cells. The experiment is described as above. It counts as cell-based, human. Particulars: CHP-134, 10 mM supplement in media, 24 hours (FIG. 2). The procedure: as §3
[9] abbreviates: 96 hrs incubation, increasing concentrations (FIG. 8).
The mark [10] stands for this setting: 24 hours, concentration-dependent (FIG. 4).

In the case of `C=CC(=O)N[C@H]1C(O)O[C@H](CO)[C@H](O)[C@@H]1O` (some centres unmarked) [GalNAcryl, N-Acryl Galactosamine], the EC50 in experiment [1] (Jurkat cells) and in experiment [2] was 3000 µM each time.

With `CS(=O)(=O)N[C@H]1C(O)O[C@H](CO)[C@H](O)[C@@H]1O` (some centres unmarked) [GalNMeSul, N-Methyanesulfonyl Galactosamine], the “apoptosis and cell death in Jurkat cells” value in experiment [1] is “inducing apoptosis and cell death”. Also, the “cell viability of Jurkat cells” value in experiment [1] was “decrease cell viability”; in experiment [4], “reduced”. For the same molecule, the induction of apoptosis entry in experiment [1] (Jurkat cells), in experiment [3] (SK-MEL 28 cells) and in experiment [2] was “induce apoptosis” in each case. In addition, the “cell viability of SK-MEL 28 cells” value in experiment [3] (setting [9]) is listed as “reduced”. The “cell viability of CHP-134 cells” value in experiment [2] (setting [9]) was “reduced”.

For `O=C(CCl)N[C@@H]1C(O)O[C@H](CO)[C@@H](O)[C@@H]1O` (some centres unmarked) [ManNClAc, N-Chloroacetyl Mannosamine], the EC50 in experiment [1] (Jurkat cells) is roughly 1000 µM; in experiment [3] (Homo sapiens, SK-MEL 28 cells, 24 hrs incubation, read-out: concentration for half-maximal decrease in viability), roughly 8000 µM; in experiment [2] it was roughly 1000 µM.

`CS(=O)(=O)N[C@@H]1C(O)O[C@H](CO)[C@@H](O)[C@@H]1O` (some centres unmarked) [ManNMeSul, N-Methyanesulfonyl Mannosamine]: the “apoptosis and cell death in Jurkat cells” value in experiment [1] is “inducing apoptosis and cell death”. The entries for the “cell viability of Jurkat cells” value in experiment [1] and in experiment [4] were “decrease cell viability” and “reduced”, respectively. Also, the induction of apoptosis entry in experiment [1] (Jurkat cells), in experiment [3] (SK-MEL 28 cells) and in experiment [2] was “induce apoptosis” throughout. For the same molecule, the “cell viability of SK-MEL 28 cells” value in experiment [3] (setting [9]) is on record as “reduced”. Besides, the “cell viability of CHP-134 cells” value in experiment [2] (setting [9]) was “reduced”.

In the case of `CC(=O)N[C@H]1[C@H]([C@H](O)[C@H](O)CO)OC(O)(C(=O)O)C[C@@H]1O` (some centres unmarked) [N-acetyl neuraminic acid], the Km in experiment [5] was roughly 500 µM.

On to `C=CC(=O)N[C@@H]1C(O)O[C@H](CO)[C@@H](O)[C@@H]1O` (some centres unmarked) [N-acryl mannosamine, N-Acryl Mannosamine], for which, in experiment [1] (24 hours, four concentrations (FIG. 3)), the “apoptosis and cell death of Jurkat cells” value is “inducing apoptosis and cell death”. Moreover, the “viability of Jurkat cells” value in experiment [1] is “reduces the viability”. Also, the “sensitivity of Jurkat cells to killing relative to the other cell lines” value in experiment [1] (Jurkat vs CHP-134 and SK-MEL 28 (FIG. 4)) was “approximately 10 fold”. Also, the “cell viability of SK-MEL 28 cells” value in experiment [3] (setting [10]) is reported as “reducing the cell viability”. Moreover, in experiment [2] (setting [10]), the “cell viability of CHP-134 cells” value was “reducing the cell viability”.

On to `CCC(=O)N[C@H]1C(O)O[C@H](CO)[C@H](O)[C@@H]1O` (some centres unmarked) [N-propionyl galactosamine], for which the “percentage of cells positive for SEAM 18 binding” value in experiment [6], in experiment [7] and in experiment [8] was “increases” each time.

Turning to `CCC(=O)N[C@@H]1C(O)O[C@H](CO)[C@@H](O)[C@@H]1O` (some centres unmarked) [N-propionyl mannosamine], the “percentage of cells positive for SEAM 18 binding” value in experiment [6], in experiment [7] and in experiment [8] was “increases” in each case.

For “Poly alpha (2→8) N-Acryl Neuraminic Acid [N-acryl PSA]”, the “viability of Jurkat cells” value in experiment [1] is listed as “reduced viability”. Besides, the “concentration required to induce cell death compared with N-acryl mannosamine” value in experiment [1] (Jurkat cells, 24 hrs (FIG. 9)) is reported as “higher”.
